Experiments:
Format in all cases: biochemical
human PDE1A = human PDE1A (Homo sapiens (Human), UniProt P54750); experiment: Ca2+ calmodulin dependent PDE enzyme assay (SPA, [3H]cAMP), PDE1A; conditions: [3H]cAMP 47 nM; enzyme 0.25 nM; read-out: PDE 1A IC50 (nM) ± SD (n = number of runs)
Description: (§1) The nucleotide sequences encoding full-length human PDE1A (NP_001003683.1) and PDE1C (NP_005011.1) are inserted into pFastBac1 (Invitrogen) vector with an N-terminal HIS tag. The nucleotide sequences encoding full-length human PDE4D (NP_006194.2) and catalytic domain (residue 641-1141) of PDE3A (NP_000912.3) are inserted into pFastBac1 (Invitrogen) vector with a C-terminal HIS tag. The nucleotide sequences encoding full-length human PDE6A (NP_000431.2) and PDE6B (AAH00249.1) are inserted into pFastBacDual (Invitrogen) vector with an N-terminal HIS tag and N-terminal Flag tag, respectively, for production of PDE6A/6B dimer. Baculovirus generation and protein expression in Sf9 cells are carried out according to the protocol of Bac-to-Bac Baculovirus Expression system (Invitrogen). The nucleotide sequence encoding full-length human PDE1B (NP_000915.1) is inserted into pIEX4 (Novagen) with a C-terminal HIS tag, and both protein productions in Sf9 cells are carried out according to the vendor's protocol (Novagen). The His tagged PDE proteins are purified using Ni-NTA agarose (Qiagen) followed by size exclusion chromatography on a SUPERDEX© 200 column (GE Healthcare) in storage buffer (20 mM Tris-HCl, pH7.5, 150 mM NaCl, 10% Glycerol). The Flag tagged PDE proteins including PDE6A/6B are purified using anti-Flag M2-agarose (Sigma), after purification through NiNTA column chromatography and eluted in storage buffer (50 mM Tris-HCl, pH7.5, 150 mM NaCl, 10% Glycerol, 0.1 mg/ml Flag peptide). All purified proteins are stored at −80° C. in small aliquots.
(§2) All 3′, 5′ cyclic nucleotide phosphodiesterase (PDE) enzyme activities are measured with a radiometric enzyme assay based on SPA detection system (scintillation proximity assay). Compounds to be tested are diluted in pure dimethyl sulfoxide (DMSO) using ten point concentration response curves. Maximal compound concentration in the reaction mixture is either 10 or 100 μM. Compounds at the appropriate concentration are pre-incubated with either of the PDE enzymes for 30 minutes before the reaction is started by the addition of substrate. Reactions are allowed to proceed for 60 minutes at room temperature. Next, reactions are stopped by addition of SPA beads. Samples are read 12 hours later in a MICROBETA™ TRILUX© Counter. “IC50” refers to the concentration of the compound that produces 50% of the maximal inhibitory response possible for that compound. IC50 values are calculated by plotting the normalized data vs. log [compound] and fitting the data using a four parameter logistic equation.
(§3) PDE1B, PDE1A, and PDE1C are cloned and purified following standard protein generation procedures. The assay buffer is prepared to give a final concentration in the assay of 50 mM Tris-HCl, 50 mM MgC2, 4 mM CaCl2, 0.1% Bovine serum albumin and 6 U/ml Calmodulin in water, at pH 7.5. The final enzyme concentration is 0.25, 0.074 and 0.0012 nM, for PDE1A, PDE1B and PDE1C respectively. The reactions are started by addition of the substrate, [^3H]cAMP, to give a final concentration of 47 nM.

human PDE1B = human PDE1B (Homo sapiens (Human), UniProt Q01064); experiment: Ca2+ calmodulin dependent PDE enzyme assay (SPA, [3H]cAMP), PDE1B; conditions: [3H]cAMP 47 nM; enzyme 0.074 nM; read-out: PDE 1B IC50 (nM) ± SD (n = number of runs)
Description: as §1, §2, §3

human PDE1C = human PDE1C (Homo sapiens (Human), UniProt Q14123); experiment: Ca2+ calmodulin dependent PDE enzyme assay (SPA, [3H]cAMP), PDE1C; conditions: [3H]cAMP 47 nM; enzyme 0.0012 nM; read-out: PDE 1C IC50 (nM) ± SD (n = number of runs)
Description: as §1, §2, §3

[1] = biological target: human PDE3A (catalytic domain) (Homo sapiens (Human), UniProt Q14432); experiment: PDE enzyme assay using [3H]cAMP as substrate, PDE3A; conditions: [3H]cAMP 47 nM, enzyme 0.008 nM, read-out: PDE 3A IC50 (μm) ± SD (n = number of runs)
Chain of human PDE3A (catalytic domain) (Q14432 641-1141): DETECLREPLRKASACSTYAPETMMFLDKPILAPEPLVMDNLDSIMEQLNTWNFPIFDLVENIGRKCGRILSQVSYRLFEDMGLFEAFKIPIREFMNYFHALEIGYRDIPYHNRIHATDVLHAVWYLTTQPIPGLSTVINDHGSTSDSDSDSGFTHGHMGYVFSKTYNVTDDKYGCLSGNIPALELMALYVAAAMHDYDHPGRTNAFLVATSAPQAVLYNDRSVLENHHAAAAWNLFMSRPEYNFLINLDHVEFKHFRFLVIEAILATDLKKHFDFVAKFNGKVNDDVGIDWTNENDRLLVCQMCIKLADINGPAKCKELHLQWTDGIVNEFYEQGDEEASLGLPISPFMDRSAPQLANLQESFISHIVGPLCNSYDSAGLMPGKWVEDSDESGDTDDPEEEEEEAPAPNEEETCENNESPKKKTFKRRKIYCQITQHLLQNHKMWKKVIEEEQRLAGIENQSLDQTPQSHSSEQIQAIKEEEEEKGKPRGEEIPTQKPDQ
Description: as §1, §2
(§4) The following phosphodiesterase activities are measured using [3H]cAMP as reaction substrate: human PDE3A (catalytic domain) and human PDE4D. Both enzymes are cloned and purified following standard procedures. The assay buffer is prepared to give a final concentration in the assay of 50 mM Tris-HCl, 8.3 mM MgCl2, 1.7 mM ethylenediarninetetraacetic acid (EDTA) and 0.1% Bovine serum albumin at pH 7.5. Final enzyme concentrations are 0.008 and 0.021 nM for PDE3A and PDE4D, respectively. Reactions are started by addition of the substrate, [3H]cAMP, to give a final concentration of 47 nM.

human PDE4D = human PDE4D (Homo sapiens (Human), UniProt Q08499); experiment: PDE enzyme assay using [3H]cAMP as substrate, PDE4D; conditions: [3H]cAMP 47 nM; enzyme 0.021 nM; read-out: PDE 4D IC50 (μm) ± SD (n = number of runs)
Chain of human PDE4D (Q08499 other isoform, or with tags, fused parts or gaps): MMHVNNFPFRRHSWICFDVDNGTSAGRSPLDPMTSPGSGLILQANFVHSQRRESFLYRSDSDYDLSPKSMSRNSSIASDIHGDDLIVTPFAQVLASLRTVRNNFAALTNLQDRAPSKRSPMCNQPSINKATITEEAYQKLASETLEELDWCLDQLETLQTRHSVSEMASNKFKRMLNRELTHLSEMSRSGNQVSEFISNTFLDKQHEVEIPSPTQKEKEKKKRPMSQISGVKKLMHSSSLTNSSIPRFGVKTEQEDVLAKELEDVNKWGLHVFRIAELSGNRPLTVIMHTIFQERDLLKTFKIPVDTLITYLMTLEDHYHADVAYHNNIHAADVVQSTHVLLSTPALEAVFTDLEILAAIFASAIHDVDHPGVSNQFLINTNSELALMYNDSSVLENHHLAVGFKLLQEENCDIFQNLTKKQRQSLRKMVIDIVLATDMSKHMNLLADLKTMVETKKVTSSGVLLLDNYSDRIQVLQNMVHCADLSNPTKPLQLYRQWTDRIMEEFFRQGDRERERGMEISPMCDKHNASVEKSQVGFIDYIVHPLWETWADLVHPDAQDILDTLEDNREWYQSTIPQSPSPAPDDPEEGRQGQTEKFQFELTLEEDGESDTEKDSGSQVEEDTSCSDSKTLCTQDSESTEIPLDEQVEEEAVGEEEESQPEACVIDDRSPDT
Description: as §1, §2, §4

human PDE6A/6B = human PDE6A/6B (Homo sapiens (Human), UniProt P16499+P35913); experiment: PDE enzyme assay using [3H]cGMP as substrate, PDE6A/6B; conditions: [3H]cGMP 80 nM; enzyme 5 nM; read-out: PDE 6AB IC50 (μM) ± SD (n = number of runs)
Chain of human PDE6A/6B (P16499 whole entry): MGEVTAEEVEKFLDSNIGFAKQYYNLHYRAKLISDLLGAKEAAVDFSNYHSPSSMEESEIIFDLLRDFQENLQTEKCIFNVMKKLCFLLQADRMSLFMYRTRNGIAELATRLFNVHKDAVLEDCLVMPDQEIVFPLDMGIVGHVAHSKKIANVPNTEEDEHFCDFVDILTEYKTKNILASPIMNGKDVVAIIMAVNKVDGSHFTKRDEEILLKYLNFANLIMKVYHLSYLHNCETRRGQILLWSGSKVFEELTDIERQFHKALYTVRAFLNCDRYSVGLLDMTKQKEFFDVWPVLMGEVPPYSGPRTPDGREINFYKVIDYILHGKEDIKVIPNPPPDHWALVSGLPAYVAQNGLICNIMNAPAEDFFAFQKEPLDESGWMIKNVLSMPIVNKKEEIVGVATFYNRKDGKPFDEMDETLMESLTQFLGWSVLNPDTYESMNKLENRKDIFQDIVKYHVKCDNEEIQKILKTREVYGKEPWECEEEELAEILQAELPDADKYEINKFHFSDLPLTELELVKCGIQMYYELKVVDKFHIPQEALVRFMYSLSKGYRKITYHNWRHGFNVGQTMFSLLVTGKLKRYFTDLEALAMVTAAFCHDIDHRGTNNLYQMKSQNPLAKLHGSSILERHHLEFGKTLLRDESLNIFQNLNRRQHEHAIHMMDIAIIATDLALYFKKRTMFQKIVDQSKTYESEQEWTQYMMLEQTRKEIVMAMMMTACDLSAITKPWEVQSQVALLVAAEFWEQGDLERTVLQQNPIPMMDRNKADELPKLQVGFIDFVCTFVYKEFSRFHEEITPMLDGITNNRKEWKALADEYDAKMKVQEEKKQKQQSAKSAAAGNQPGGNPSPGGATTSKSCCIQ
Chain of human PDE6A/6B (P35913 other isoform, or with tags, fused parts or gaps): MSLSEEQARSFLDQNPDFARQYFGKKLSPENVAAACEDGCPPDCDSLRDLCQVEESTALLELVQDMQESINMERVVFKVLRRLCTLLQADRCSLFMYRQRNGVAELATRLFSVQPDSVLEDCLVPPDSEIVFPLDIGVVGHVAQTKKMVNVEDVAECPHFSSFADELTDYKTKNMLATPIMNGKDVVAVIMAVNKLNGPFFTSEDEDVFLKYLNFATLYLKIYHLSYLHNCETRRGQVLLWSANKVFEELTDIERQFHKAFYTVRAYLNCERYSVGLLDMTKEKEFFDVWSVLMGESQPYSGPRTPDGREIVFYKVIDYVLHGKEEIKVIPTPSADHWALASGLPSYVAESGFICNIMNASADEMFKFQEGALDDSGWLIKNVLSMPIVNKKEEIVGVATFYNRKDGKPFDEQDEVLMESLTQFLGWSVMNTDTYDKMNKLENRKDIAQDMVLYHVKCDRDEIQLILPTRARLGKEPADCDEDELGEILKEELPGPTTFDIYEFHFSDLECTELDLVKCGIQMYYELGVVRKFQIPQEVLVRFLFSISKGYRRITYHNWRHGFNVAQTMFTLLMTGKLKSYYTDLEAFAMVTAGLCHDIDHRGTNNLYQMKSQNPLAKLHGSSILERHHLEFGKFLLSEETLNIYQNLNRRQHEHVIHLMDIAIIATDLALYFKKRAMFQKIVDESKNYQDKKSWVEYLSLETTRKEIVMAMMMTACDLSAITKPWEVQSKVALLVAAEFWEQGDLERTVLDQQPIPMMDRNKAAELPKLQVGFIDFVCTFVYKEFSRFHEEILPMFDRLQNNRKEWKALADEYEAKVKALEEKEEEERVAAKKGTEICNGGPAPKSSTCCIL
Description: as §1, §2
The following phosphodiesterase activities are measured using [3H]cGMP as reaction substrate: human PDE6A/6B. The catalytic active form of human PDE6 is a dimer composed of a α (human PDE6A) and β subunit (human PDE6B). The dimer of human PDE6A/6B is produced by the expression and purification strategy, using two purification steps, i.e., NiNTA and anti-FLAG Sepharose chromatography. The assay buffer is prepared to give a final concentration in the assay of 50 mM Tris-HCl, 8.3 mM MgC2, 1.7 mM EDTA and 0.1% Bovine serum albumin at pH 7.5. The final enzyme concentration is 5 nM. The reactions are started by addition of the substrate, [3H]cGMP, to give a final concentration of 80 nM.

| IC50 (human PDE1A) [nM] | IC50 (human PDE1B) [nM] | IC50 (human PDE1C) [nM] | IC50 [1] [nM] | IC50 (human PDE4D) [nM] | IC50 (human PDE6A/6B) [µM] | Compound |
| --- | --- | --- | --- | --- | --- | --- |
| 6.5 ± 2.6 | 6.6 | 4.7 ± 1.4 | > 100000 | 12100 | > 10 | O=c1c2nnc(C3(C4CC4)CC3)n2c2c(n1CC1CC1)CCCCC2 [Example 8, 1-([1,1′-bi(cyclopropan)]-1-yl)-5-(cyclopropylmethyl)-5,6,7,8,9,10-hexahydro-4H-cyclohepta[e][1,2,4]triazolo[4,3-a]pyrazin-4-one] |
| 5.2 ± 2 | 12 | 2 ± 0.1 | > 100000 | > 100000 | > 10 | CCCCn1c2c(n3c(C4(C5CC5)CC4)nnc3c1=O)CCOC2 [Example 7, 1-([1,1′-bi(cyclopropan)]-1-yl)-5-butyl-8,9-dihydro-6H-pyrano[3,4-e][1,2,4]triazolo[4,3-a]pyrazin-4(5H)-one] |
| 8.4 ± 3.8 | 14.9 | 7.6 ± 1.9 | > 100000 | 39200 ± 16500 | > 10 | O=c1c2nnc(C3(C4CC4)CC3)n2c2c(n1CC1CC1)COCC2 [Example 6, 1-(1-cyclopropylcyclopropyl)-5-(cyclopropylmethyl)-3-oxo-7,8-dihydro-5H-pyrano-[1,2,4]triazolo[4,3-a]quinoxalin-4-one] |

Second part, the molecule before the results:

| Compound | IC50 (human PDE1A) [nM] | IC50 (human PDE1B) [nM] | IC50 (human PDE1C) [nM] | IC50 [1] [nM] | IC50 (human PDE4D) [nM] | IC50 (human PDE6A/6B) [µM] |
| --- | --- | --- | --- | --- | --- | --- |
| CCCCn1c2c(n3c(C4(C5CC5)CC4)nnc3c1=O)COCC2 [Example 4, 1-([1,1′-bi(cyclopropan)]-1-yl)-5-butyl-5,6,7,9-tetrahydro-4H-pyrano[4,3-e][1,2,4]triazolo[4,3-a]pyrazin-4-one] | 6.3 ± 0.4 | 7.8 | 1.5 ± 0.5 | > 100000 | 21800 | > 10 |
| CCCn1c2c(n3c(C4(C5CC5)CC4)nnc3c1=O)CCCC2 [Example 1, 1-([1,1′-bi(cyclopropan)]-1-yl)-5-propyl-6,7,8,9-tetrahydro-[1,2,4]triazolo[4,3-a]quinoxalin-4(5H)-one] | 2.9 ± 1.9 | 3.1 | 2.6 ± 3.3 | > 100000 | 12700 | > 10 |
| CCCCn1c2c(n3c(C4(C5CC5)CC4)nnc3c1=O)CCCC2 [Example 2, 1-([1,1′-bi(cyclopropan)]-1-yl)-5-butyl-6,7,8,9-tetrahydro-[1,2,4]triazolo[4,3-a]quinoxalin-4(5H)-one] | 3 ± 2.1 | 4.1 | 1.4 ± 0.9 | > 100000 | 13200 ± 2500 | > 10 |
| O=c1c2nnc(C3(C4CC4)CC3)n2c2c(n1CC1CC1)CCOC2 [Example 3, 1-([1,1′-bi(cyclopropan)]-1-yl)-5-(cyclopropylmethyl)-5,6,7,9-tetrahydro-4H-pyrano[4,3-e][1,2,4]triazolo[4,3-a]pyrazin-4-one] | 9.8 ± 2.2 | 8.7 | 5.2 ± 0.6 | > 100000 | 16400 ± 300 | > 10 |
| O=c1c2nnc(C3(C4CC4)CC3)n2c2c(n1CC1CCC1)CCOC2 [Example 5, 1-([1,1′-bi(cyclopropan)]-1-yl)-5-(cyclobutylmethyl)-5,6,7,9-tetrahydro-4H-pyrano[4,3-e][1,2,4]triazolo[4,3-a]pyrazin-4-one] | 5.8 ± 2.3 | 4.2 | 1.9 ± 0.4 | > 100000 | 19200 | > 10 |
